The term EC50 denotes the midpoint of the concentration-response curve.

Data on 22 molecules can be found in paper PMC12518634, “The noncanonical function of liver-type phosphofructokinase potentiates the efficacy of HDAC inhibitors in cancer” (Signal Transduction and Targeted Therapy, 2025).

Like-named read-outs stand apart in the source and are kept apart here.

For one assay, the system named is 1405R3. The assay can be described thus: High-throughput drug screen, CellTiter-Glo viability, 72 h. The assay is classed as cell-based, human. More on the design: AUC: scale not given here. To be noted: 1405R3 DSRT analysis; for AUC: area under the dose-response curve; for DSS: drug sensitivity score; for MIN: lower asymptote of fitted dose-response curve; for EC50: CellTiter-Glo viability, 72 h, fitted dose-response curve, Min.Conc.tested 1, Max.Conc.tested 10000, GI50, read-out: EC50; for SLOPE: slope of fitted dose-response curve. Summed up: (§1)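 Cholangiocarcinoma cells were seeded at 3000/well in 384-well plates and dosed after 24 h. Drugs were tested at 10, 1, 0.1, 0.01 and 0.001 μM in duplicate for 72 h, with viability read by CellTiter-Glo luminescence.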
In general terms: Cellular ATP, detected with luciferase, serves as a proxy for viable cell number.

The test system of a further assay is 783C-6. The assay is described as above. The assay is classed as cell-based, human. More on the design: AUC: scale not given here. To be noted: for DSS: DSS of DSRT analysis; for AUC: area under the dose-response curve; for MIN: minimum of dose-response curve; for EC50: 72 h, read-out: EC50; for SLOPE: slope of fitted dose-response curve. The procedure, abridged:
as §1

[1] abbreviates: 783C-6 cells, DSRT analysis, CellTiter-Glo viability, concentrations tested 1 to 10000 (unit inferred), GI50.

`Cc1ccc(C(=O)Nc2ccc(CN3CCN(C)CC3)c(C(F)(F)F)c2)cc1C#Cc1cnc2cccnn12` [Ponatinib]: in the assay with 1405R3, the AUC is reported as 16.5, the DSS is 0.6 and the MIN came out at 87. In addition, in the assay on 783C-6 (783C-6 cells), the DSS is listed as 7, the AUC was found to be 59.9 and the MIN worked out at 66.9. Further, the EC50 in the assay on 783C-6 (Homo sapiens) was determined as 155 nM.
Turning to `CCCCc1nc2cc(/C=C/C(=O)NO)ccc2n1CCN(CC)CC` [Pracinostat], the AUC in the assay on 1405R3 was found to be 75.5; with 783C-6 (783C-6 cells) it was 64.3. Besides, the DSS was 8.7 with 1405R3 and 7.3 in the assay on 783C-6 (783C-6 cells). Also, the results for the MIN in the assay on 1405R3 and with 783C-6 (783C-6 cells) were 3.4 and 3.1, respectively. Besides, the figures for the EC50 in the assay with 1405R3 (Homo sapiens) and with 783C-6 (Homo sapiens) were 1660 nM and 2190 nM, respectively.
Turning to `Cn1cc(CNCC2CCN(c3ncc(C(=O)NO)cn3)CC2)c2ccccc21` [Quisinostat], in the assay with 1405R3, the AUC is 180.7, the DSS is 21.1 and the MIN turned out to be 0.1. Besides, the EC50 in the assay with 1405R3 (Homo sapiens) amounted to 156 nM. Moreover, in the assay with 783C-6 (783C-6 cells), the DSS is listed as 26.9, the AUC is given as 227.2 and the MIN is recorded as 1.2. Moreover, the EC50 in the assay with 783C-6 (Homo sapiens) was 50 nM.
Regarding `O=C(O)C(Cc1c[nH]c2ccccc12)N1C(=O)c2ccccc2C1=O` (stereo not drawn) [RG108], in the assay on 1405R3, the AUC came out at 0.1, the DSS was determined as 0, the MIN is 99.8 and the SLOPE was -1.1. For the same molecule, in the assay with 783C-6 (783C-6 cells), the DSS came out at 0, the AUC came to 9.4, the MIN came to 94 and the SLOPE was -0.1.
For the molecule `Nc1cc(F)ccc1NC(=O)/C=C/c1cnn(C/C=C/c2ccccc2)c1` [RGFP966], in the assay on 1405R3, the AUC stood at 0.2, the DSS worked out at 0 and the MIN turned out to be 98.3. For the same molecule, in the assay with 783C-6 (783C-6 cells), the DSS came out at 0, the AUC stood at 7 and the MIN is listed as 93.9.
With `C[C@@H]1O[C@@H](O[C@H]2[C@H](O[C@H]3[C@H](O[C@H]4CC[C@]5(C)[C@H]6CC=C7[C@@H]8CC(C)(C)CC[C@]8(C(=O)O)CC[C@@]7(C)[C@]6(C)CC[C@H]5C4(C)C)OC[C@H](O)[C@@H]3O)O[C@H](CO)[C@@H](O)[C@@H]2O)[C@H](O)[C@H](O)[C@H]1O` [Raddeanin A], in the assay on 1405R3, the EC50 stood at 2720 nM, the AUC is 56.1, the DSS came out at 6.3 and the MIN is listed as 1.8. Further, the SLOPE in the assay with 1405R3 is -2.5. Also, in the assay on 783C-6 (setting [1]), the EC50 turned out to be 2880 nM. Besides, in the assay with 783C-6 (783C-6 cells), the DSS is recorded as 5.9, the AUC is listed as 52.9, the MIN is reported as 3.4 and the SLOPE is reported as -2.5.
For `CN(C)Cc1ccc(S(=O)(=O)n2ccc(/C=C/C(=O)NO)c2)cc1` [Resminostat], in the assay with 1405R3, the AUC stood at 45, the DSS is on record as 5 and the MIN worked out at 20.3. For the same molecule, the EC50 with 1405R3 (Homo sapiens) amounted to 2770 nM. In addition, in the assay on 783C-6 (783C-6 cells), the DSS came out at 4.3, the AUC is reported as 39.6 and the MIN worked out at 25.4. In the assay with 783C-6 (Homo sapiens), the 50% effective concentration (EC50) amounted to 3000 nM.
With `O=C(CCCCCCNC(=O)c1cnc(N(c2ccccc2)c2ccccc2)nc1)NO` [Ricolinostat], in the assay on 1405R3, the AUC was found to be 20.6, the DSS came out at 1.9 and the MIN worked out at 71.1. The half-maximal effective concentration (EC50) in the assay on 1405R3 (Homo sapiens) came out at 1950 nM. Also, in the assay on 783C-6 (783C-6 cells), the DSS is 2.2, the AUC was determined as 22.4 and the MIN came to 66.7. Moreover, the 50% effective concentration (EC50) in the assay on 783C-6 (Homo sapiens) was 2140 nM.
As for `CC(C)N(CCCNC(=O)Nc1ccc(C(C)(C)C)cc1)C[C@H]1O[C@@H](n2cc(Br)c3c(N)ncnc32)[C@H](O)[C@@H]1O` [SGC 0946], in the assay with 1405R3, the AUC amounted to 6.1, the DSS amounted to 0 and the MIN worked out at 93.6. In the assay on 783C-6 (783C-6 cells), the DSS worked out at 0, the AUC came out at 19.5 and the MIN stood at 94.1.
For `COc1ccc(CCc2nc3cc(-c4c(C)noc4C)ccc3n2C[C@H](C)N2CCOCC2)cc1Cl` [SGC-CBP30], in the assay on 1405R3, the AUC was determined as 28.3, the DSS stood at 0 and the MIN was 84.6. For the same molecule, in the assay with 783C-6 (783C-6 cells), the DSS turned out to be 0, the AUC is on record as 4.1 and the MIN was 86.4.
As to `Cc1cc(Nc2ccc(NC(=O)c3ccc(Nc4ccnc5ccccc45)cc3)cc2)nc(N)n1` [SGI-1027], in the assay on 1405R3, the AUC turned out to be 19.4, the DSS was determined as 0, the MIN amounted to 87.3 and the SLOPE is recorded as -0.4. Moreover, in the assay on 783C-6 (783C-6 cells), the DSS is 0, the AUC worked out at 2.3, the MIN was 92.3 and the SLOPE is given as -1.
In the case of `CN1CCC(CNc2ccc3ncc(-c4cccc(OC(F)(F)F)c4)n3n2)CC1` [SGI-1776 free base], in the assay on 1405R3, the EC50 was found to be 3060 nM, the AUC turned out to be 51.4, the DSS is listed as 5.7 and the MIN was determined as 1.9. In the assay with 1405R3, the SLOPE was -2.5. In addition, the concentration giving a half-maximal response (EC50) with 783C-6 (setting [1]) worked out at 3230 nM. In the assay on 783C-6 (783C-6 cells), the DSS is 4.9, the AUC was 44.9, the MIN is 10.3 and the SLOPE was -2.5.
As to `CCCCCCCCCCCCCCCCNNC(=O)c1cccs1` [SIS17], in the assay with 1405R3, the AUC is given as 24.4, the DSS is recorded as 0, the MIN stood at 84.3 and the SLOPE is -0.1. Further, in the assay on 783C-6 (783C-6 cells), the DSS worked out at 0, the AUC is on record as 4.7, the MIN turned out to be 84.4 and the SLOPE is -1.
Regarding `COc1ccc(N(C)c2nc(C)nc3ccccc23)cc1OCCCC(=O)NO` [SKLB-23bb], in the assay on 1405R3, the half-maximal effective concentration (EC50) is 731 nM, the AUC is listed as 79.5, the DSS came to 8.2 and the MIN was 33.2. For the same molecule, the SLOPE with 1405R3 is recorded as -0.8. The EC50 with 783C-6 (setting [1]) was 60.2 nM. Further, in the assay with 783C-6 (783C-6 cells), the DSS was 13.8, the AUC is listed as 111, the MIN was determined as 50 and the SLOPE was -2.5.
With `O=C1NC(=O)/C(=C/c2cccc(C(F)(F)F)c2)S1` [SMI-4a], in the assay on 1405R3, the AUC stood at 0.1, the DSS turned out to be 0, the MIN stood at 99.6 and the SLOPE is -1.3. Moreover, in the assay on 783C-6 (783C-6 cells), the DSS is reported as 0, the AUC came to 2.1, the MIN came out at 96.8 and the SLOPE is given as -2.5.
On to `CCCOc1ccc(/C=C2\SC(=O)NC2=O)cc1` [SMI-16a], for which, in the assay with 1405R3, the AUC is on record as 0.1, the DSS is on record as 0, the MIN is listed as 100 and the SLOPE is -0.1. Further, in the assay on 783C-6 (783C-6 cells), the DSS stood at 0, the AUC was 5.7, the MIN is reported as 91.3 and the SLOPE is recorded as -0.5.
For `C/C(=N\NC(=O)c1cccc(S(=O)(=O)N2CCOCC2)c1)c1cc(Cl)ccc1O` [SP2509], in the assay with 1405R3, the 50% effective concentration (EC50) amounted to 1570 nM, the AUC is given as 31.9, the DSS turned out to be 3.1 and the MIN was 61. The SLOPE with 1405R3 is -1.6. In addition, in the assay with 783C-6 (setting [1]), the EC50 stood at 2180 nM. In the assay with 783C-6 (783C-6 cells), the DSS was 4.9, the AUC is 43.2, the MIN was 35 and the SLOPE is given as -2.5.
For the molecule `CCCCNNC(=O)c1ccc(-c2cccc(F)c2F)cc1` [SR-4370], in the assay with 1405R3, the EC50 amounted to 2080 nM, the AUC is reported as 63.7, the DSS turned out to be 7.2 and the MIN is recorded as 6.9. In the assay with 1405R3, the SLOPE is reported as -2.5. For the same molecule, in the assay with 783C-6 (setting [1]), the concentration giving a half-maximal response (EC50) was 2630 nM. Besides, in the assay with 783C-6 (783C-6 cells), the DSS was 6.1, the AUC stood at 54.2, the MIN turned out to be 7.5 and the SLOPE is recorded as -2.5.
Turning to `CCOC(=O)NCCCC(=O)NCCc1ccccc1` [Santacruzamate A], in the assay on 1405R3, the AUC worked out at 1, the DSS was 0, the MIN amounted to 92 and the SLOPE is on record as -2.5. Also, in the assay with 783C-6 (783C-6 cells), the DSS is 0, the AUC is recorded as 2.2, the MIN was 94.7 and the SLOPE is -0.7.
As to `O=C(CCCCCN1C(=O)c2cccc3cccc(c23)C1=O)NO` [Scriptaid], the values for the AUC with 1405R3 and with 783C-6 (783C-6 cells) were 77.8 and 74.4, respectively. For the same molecule, the DSS is on record as 9 in the assay on 1405R3 and 8.6 in the assay on 783C-6 (783C-6 cells). Besides, the MIN is reported as 11.5 with 1405R3 and 3.2 in the assay on 783C-6 (783C-6 cells). Besides, the values for the EC50 in the assay on 1405R3 (Homo sapiens) and in the assay on 783C-6 (Homo sapiens) were 1330 nM and 1710 nM, respectively.
In the case of `NC(=O)C1CCCc2c1[nH]c1ccc(Cl)cc21` (stereo not drawn) [Selisistat], in the assay on 1405R3, the AUC was determined as 1, the DSS is given as 0, the MIN is on record as 97.8 and the SLOPE was -0.6. Moreover, in the assay with 783C-6 (783C-6 cells), the DSS amounted to 0, the AUC is on record as 11.9, the MIN came out at 93.6 and the SLOPE was -0.1.
As to `O=C(O)CCCc1ccccc1` [Sodium Phenylbutyrate], in the assay with 1405R3, the AUC stood at 9.3, the DSS was 0 and the MIN was 90.9. In addition, in the assay on 783C-6 (783C-6 cells), the DSS is 0, the AUC came out at 15 and the MIN is 91.2.
